Drawing on ChEMBL document CHEMBL1151184, “New diterpenes from Croton insularis” (J Nat Prod, 2004), this text covers IC50 for six molecules.

Structures are written as SMILES.

The test system of assay [1] is HeLa. Briefly: Cytotoxicity against human HeLa cells by MTT assay. The format is functional, cell-based. Background: Tetrazolium assays rely on reduction of a dye to a coloured formazan, in cell work by metabolically active cells.
The test system of assay [2] is L1210. Kind of assay: Cytotoxicity against mouse L1210 cells by MTT assay. The format is functional, cell-based.

Regarding `CC1(C)C(=O)CC[C@@]2(C)[C@@H]3C[C@@H]4[C@@H]5C[C@@]3(CC[C@@H]12)C[C@@]45C`, the IC50 was 131 µM in assay [1] and 103 µM in assay [2].

Consider `C[C@@H]1CC[C@]2(C)[C@H](CC[C@@H](O)[C@]2(C)O)[C@@]1(C)CC(=O)c1ccoc1`, for which the values for the IC50 in assay [1] and in assay [2] were greater than 200 µM and 98 µM, respectively.

As for `C[C@@]12CCC[C@@](C)(C(=O)O)[C@@H]1CC[C@@]13C[C@H]4[C@@H](C[C@H]12)[C@]4(C)C3`, the IC50 in assay [1] and in assay [2] was 99 µM each time.

On to `CC1(C)[C@@H](O)CC[C@@]2(C)[C@@H]3C[C@@H]4[C@@H]5C[C@@]3(CC[C@@H]12)C[C@@]45C`, for which the IC50 is greater than 200 µM in assay [1] and 133 µM in assay [2].

In the case of `C[C@]1(CO)[C@@H]2CC[C@@]34C[C@H]5[C@@H](C[C@H]3[C@]2(C)CC[C@H]1O)[C@]5(C)C4`, the IC50 in assay [1] came to 97 µM; in assay [2], 91 µM.

As to `C[C@@H]1CC[C@]2(C)[C@H](CC[C@@H](O)[C@]2(C)O)[C@@]12C=C(c1ccoc1)OC2` [CROTINSULARIN], the results for the IC50 in assay [1] and in assay [2] were 148 µM and 128 µM, respectively.

As a reminder, the IC50 is the concentration that inhibits the measured activity by half. A lower IC50 goes with inhibition by little substance.
